In ChEMBL document CHEMBL5257076, “Design, synthesis, structure-activity relationship studies, and evaluation of novel GLS1 inhibitors” (Bioorg Med Chem Lett, 2023):
Calls of active or inactive are those of the source. The calls are words filed in the database; no cut-off is given here.

How the values were obtained:
[1] = biological target: T1, Glutaminase kidney isoform, mitochondrial (Mus musculus) (UniProt D3Z7P3); test: Inhibition of GLS1 in mouse kidney extract at 10 mM; format: tissue-based
T1 sequence (whole entry): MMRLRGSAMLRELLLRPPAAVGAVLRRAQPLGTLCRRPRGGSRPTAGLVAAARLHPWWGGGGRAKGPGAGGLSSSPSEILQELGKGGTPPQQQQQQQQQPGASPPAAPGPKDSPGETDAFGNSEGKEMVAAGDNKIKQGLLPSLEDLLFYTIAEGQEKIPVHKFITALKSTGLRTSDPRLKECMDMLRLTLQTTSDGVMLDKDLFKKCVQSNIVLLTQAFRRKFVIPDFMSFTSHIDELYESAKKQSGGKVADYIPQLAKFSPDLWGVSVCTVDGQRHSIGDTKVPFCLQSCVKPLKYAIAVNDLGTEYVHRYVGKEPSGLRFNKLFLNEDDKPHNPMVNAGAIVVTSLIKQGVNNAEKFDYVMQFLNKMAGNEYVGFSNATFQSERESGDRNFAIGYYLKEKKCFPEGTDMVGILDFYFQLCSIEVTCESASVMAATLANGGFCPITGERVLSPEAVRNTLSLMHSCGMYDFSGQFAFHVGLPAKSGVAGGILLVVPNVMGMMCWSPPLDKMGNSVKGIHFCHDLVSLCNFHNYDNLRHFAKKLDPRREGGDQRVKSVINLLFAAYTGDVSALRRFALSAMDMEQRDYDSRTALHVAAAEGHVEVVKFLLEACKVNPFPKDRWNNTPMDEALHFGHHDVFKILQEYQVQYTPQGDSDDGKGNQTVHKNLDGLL

[2] = biological target: T1, Glutaminase kidney isoform, mitochondrial (Mus musculus); test: Inhibition of GLS1 in mouse kidney extract at 1 mM relative to control; format: tissue-based
[3] = biological target: T2, Glutaminase kidney isoform, mitochondrial (Homo sapiens) (UniProt O94925); test: Inhibition of human recombinant GLS1 at 1 mM relative to control
T2 sequence (whole entry): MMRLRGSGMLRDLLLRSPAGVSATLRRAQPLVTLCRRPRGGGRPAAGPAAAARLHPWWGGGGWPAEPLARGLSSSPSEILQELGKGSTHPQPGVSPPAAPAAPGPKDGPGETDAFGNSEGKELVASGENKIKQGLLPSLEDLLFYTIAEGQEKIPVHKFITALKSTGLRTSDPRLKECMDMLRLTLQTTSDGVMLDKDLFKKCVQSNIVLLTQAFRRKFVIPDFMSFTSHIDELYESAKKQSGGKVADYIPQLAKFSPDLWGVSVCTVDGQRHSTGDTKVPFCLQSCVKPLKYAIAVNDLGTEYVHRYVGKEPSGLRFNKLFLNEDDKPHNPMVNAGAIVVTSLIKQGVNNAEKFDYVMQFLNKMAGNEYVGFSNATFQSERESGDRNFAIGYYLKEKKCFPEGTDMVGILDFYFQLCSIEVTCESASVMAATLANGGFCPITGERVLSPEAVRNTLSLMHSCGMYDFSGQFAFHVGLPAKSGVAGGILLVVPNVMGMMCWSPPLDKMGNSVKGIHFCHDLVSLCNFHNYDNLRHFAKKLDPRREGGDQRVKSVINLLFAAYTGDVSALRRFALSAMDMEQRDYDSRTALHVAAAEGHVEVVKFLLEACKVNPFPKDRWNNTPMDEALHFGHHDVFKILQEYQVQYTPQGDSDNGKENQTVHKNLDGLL

[4] = biological target: T1, Glutaminase kidney isoform, mitochondrial (Mus musculus); test: Inhibition of mouse recombinant GLS1 relative to control; settings: concentration not given here
[5] = biological target: T1, Glutaminase kidney isoform, mitochondrial (Mus musculus); test: Inhibition of mouse recombinant GLS1 glutaminase activity at 1 mM
[6] = biological target: T1, Glutaminase kidney isoform, mitochondrial (Mus musculus); test: Inhibition of GLS1 in mouse kidney extract at 10 mM relative to control; format: tissue-based
[7] = biological target: T2, Glutaminase kidney isoform, mitochondrial (Homo sapiens); test: Inhibition of human recombinant GLS1 at 10 mM relative to control

| SMILES | inhibition [1] | also measured |
| --- | --- | --- |
| CNC(=O)c1cc(Cc2ccccc2)n[nH]1 | inactive | – |
| O=C(Nc1ccccc1)c1cc(Cc2ccccc2)n[nH]1 | inactive | – |
| [N-]=[N+]=CC(=O)CC[C@H](N)C(=O)O | – | inhibition [2]: 65.5%; inhibition [3]: 84.1%; inhibition [4]: 55.5%; inhibition [5]: Active |
| O=C(c1cc(Cc2ccccc2)n[nH]1)N1CCCCC1 | inactive | – |
| CON(C)C(=O)c1cc(Cc2ccccc2)n[nH]1 | inactive | – |
| O=C(c1cc(Cc2ccccc2)n[nH]1)N1CCCC1 | inactive | – |
| O=C(N[C@H]1CC[C@H](O)CC1)c1cc(Cc2ccc(F)cc2)n[nH]1 | – | inhibition [6]: 90.1%; inhibition [4]: 73.2%; inhibition [7]: 94.6% |
| O=C(N[C@H]1CC[C@H](O)CC1)c1cc(-c2ccccc2)n[nH]1 | – | inhibition [6]: 93.3%; inhibition [4]: 81.4%; inhibition [7]: 97.1% |
| O=C(N[C@H]1CC[C@H](O)CC1)c1ccc(-c2ccccc2)[nH]1 | inactive | – |
| NNC(=O)c1cc(-c2ccccc2)n[nH]1 | – | inhibition [6]: 52.6% |
| O=C(N[C@H]1CC[C@H](O)CC1)c1cc(-c2ccccc2)c[nH]1 | inactive | – |
| O=C(NCCO)c1cc(Cc2ccccc2)n[nH]1 | inactive | – |
| O=C(c1cc(Cc2ccccc2)n[nH]1)N1CCCCCC1 | inactive | – |
| O=C(N[C@H]1CC[C@H](O)CC1)c1cc(CCc2ccccc2)n[nH]1 | – | inhibition [6]: 58.6% |
| O=C(c1cc(Cc2ccccc2)n[nH]1)N1CCC(O)CC1 | inactive | – |
| O=C1CCC(NC(=O)c2cc(Cc3ccccc3)n[nH]2)CC1 | inactive | – |
| O=C(N[C@H]1CC[C@H](O)CC1)c1ncc(-c2ccccc2)[nH]1 | Active | – |
| CN(C)C(=O)c1cc(Cc2ccccc2)n[nH]1 | inactive | – |
| O=C(c1cc(Cc2ccccc2)n[nH]1)N1CCOCC1 | inactive | – |
| O=C(N[C@H]1CC[C@H](O)CC1)c1cc(Cc2ccccc2)n[nH]1 | – | inhibition [6]: 99.4%; inhibition [4]: 19.7% |
